Test: Antioxidant activity assessed as DPPH radical scavenging activity incubated at room temperature for 20 mins by UV-visible spectrophotometry

SMILES | IC50 (DPPH radical (cell-free)) [mM] | IC50 [mM]
O=C1O[C@H]([C@@H](O)CO)C(O)=C1O [ASCORBIC ACID] | 0.033 | –
O=C(O)c1cc(O)c(O)c(O)c1 [GALLIC ACID] | 0.011 | –
COc1ccc(-c2oc3ccccc3c(=O)c2O)cc1 | 0.114 | –
O=C(O)/C=C/c1ccc(O)cc1 [COUMARIC ACID] | 18.4 | –
CC(C)c1ccc(-c2oc3ccccc3c(=O)c2O)cc1 | 11 | –
CC(C)(C)c1ccc(-c2cc(=O)c3ccc(O)cc3o2)cc1 | 44.3 | –
O=Cc1ccccc1O [SALICYLADEHYDE] | 96.6 | –
COc1ccc(-c2cc(=O)c3ccccc3o2)cc1 [4'-METHOXYFLAVONE] | 682 | –
Cc1ccc(-c2cc(=O)c3ccccc3o2)cc1 | 6.34 | –
O=C(/C=C/c1ccc(Cl)cc1)c1ccccc1O | 6.1 | –
O=c1c(O)c(-c2ccc(Cl)cc2)oc2cc(O)cc(O)c12 | 27.8 | –
CC(=O)c1ccccc1O | 155 | –
COc1ccc(O)c(C(C)(C)C)c1.COc1ccc(O)cc1C(C)(C)C [BUTYLATED HYDROXYANISOLE] | 0.019 | –
COc1c(C(=O)/C=C(\O)c2ccccc2)ccc2occc12 [PONGAMOL] | 11.6 | –
Cc1ccc(/C=C/C(=O)c2ccccc2O)cc1 | 7.72 | –
COc1c(-c2ccccc2)oc2c(ccc3occc32)c1=O [KARANJIN] | 4.23 | –
O=C(O)c1ccccc1O [SALICYLIC ACID] | – | 278
O=C(/C=C/C=C/c1ccccc1)c1ccccc1 | 113 | –
O=c1c(O)c(-c2ccc(Cl)cc2)oc2ccccc12 | 0.663 | –
CN(C)c1ccc(-c2oc3cc(O)cc(O)c3c(=O)c2O)cc1 | 0.612 | –
O=C1C[C@@H](c2ccccc2)Oc2cc(O)cc(O)c21 [PINOCEMBRIN] | 59.3 | –

SMILES | IC50 (DPPH radical (cell-free)) [mM] | IC50 [mM]
O=Cc1ccco1 [FURFURAL] | 215 | –
O=C(/C=C/c1ccccc1)c1ccccc1O [2'-HYDROXYCHALCONE] | 78 | –
O=C(/C=C\C=C/c1ccc2c(c1)OCO2)N1CCCCC1 | 90.7 | –
Cc1c(C)c2c(c(C)c1O)CCC(C)(C(=O)O)O2 (stereo unspecified) [TROLOX] | 0.012 | –
CC(C)(C)c1ccc(-c2oc3cc(O)cc(O)c3c(=O)c2O)cc1 | 0.709 | –
O=C(O)/C=C/c1ccccc1 [CINNAMIC ACID] | 1730 | –
CN(C)c1ccc(-c2oc3ccccc3c(=O)c2O)cc1 | 0.022 | –
O=C(/C=C/c1ccco1)c1ccccc1O | 4.27 | –
O=c1c(O)c(-c2ccccc2)oc2cc(O)cc(O)c12 [GALANGIN] | 0.191 | –
O=c1c(O)c(-c2ccco2)oc2ccccc12 | 0.034 | –
O=c1c(O)c(-c2ccc3c(c2)OCO3)oc2ccccc12 | 0.094 | –
COc1ccc(/C=C/C(=O)c2ccccc2O)cc1 | 190 | –
O=c1cc(-c2ccc(Cl)cc2)oc2ccccc12 | 0.725 | –
O=C/C=C/c1ccccc1 [CINNAMALDEHYDE] | 372 | –
O=c1c(O)c(-c2ccccc2)oc2ccccc12 [FLAVONOL] | 0.387 | –
O=C(/C=C/C=C/c1ccccc1)c1ccccc1O | 7.13 | –
O=c1c(O)c(/C=C/c2ccccc2)oc2ccccc12 | 0.039 | –
CC(C)(C)c1ccc(/C=C/C(=O)c2ccccc2O)cc1 | 17.1 | –
CC(C)c1ccc(-c2cc(=O)c3c(O)cc(O)cc3o2)cc1 | 29.6 | –
CC(C)(C)Oc1ccc(-c2oc3cc(O)cc(O)c3c(=O)c2O)cc1 | 0.452 | –
